Measured values: patent US20230365576A1, “BRM Targeting Compounds And Associated Methods Of Use” (Prelude Therapeutics Incorporated, priority 2022, published 2023)

Tests used:
SMARCA2 = target: T1, SMARCA2 (Homo sapiens, UniProt P51531); test: SMARCA2 HiBiT degradation assay in HeLa cells; type: cell-based; settings: 18 hours; for DC50: read-out: SMARCA2 IC50; for Dmax: HeLa
T1 construct: SMARCA2-HiBiT knock-in Hela monoclonal cell (CS302366); host or cells: HeLa (CRISPR HiBiT knock-in monoclonal line, heterozygous)
T1 sequence (P51531 whole entry): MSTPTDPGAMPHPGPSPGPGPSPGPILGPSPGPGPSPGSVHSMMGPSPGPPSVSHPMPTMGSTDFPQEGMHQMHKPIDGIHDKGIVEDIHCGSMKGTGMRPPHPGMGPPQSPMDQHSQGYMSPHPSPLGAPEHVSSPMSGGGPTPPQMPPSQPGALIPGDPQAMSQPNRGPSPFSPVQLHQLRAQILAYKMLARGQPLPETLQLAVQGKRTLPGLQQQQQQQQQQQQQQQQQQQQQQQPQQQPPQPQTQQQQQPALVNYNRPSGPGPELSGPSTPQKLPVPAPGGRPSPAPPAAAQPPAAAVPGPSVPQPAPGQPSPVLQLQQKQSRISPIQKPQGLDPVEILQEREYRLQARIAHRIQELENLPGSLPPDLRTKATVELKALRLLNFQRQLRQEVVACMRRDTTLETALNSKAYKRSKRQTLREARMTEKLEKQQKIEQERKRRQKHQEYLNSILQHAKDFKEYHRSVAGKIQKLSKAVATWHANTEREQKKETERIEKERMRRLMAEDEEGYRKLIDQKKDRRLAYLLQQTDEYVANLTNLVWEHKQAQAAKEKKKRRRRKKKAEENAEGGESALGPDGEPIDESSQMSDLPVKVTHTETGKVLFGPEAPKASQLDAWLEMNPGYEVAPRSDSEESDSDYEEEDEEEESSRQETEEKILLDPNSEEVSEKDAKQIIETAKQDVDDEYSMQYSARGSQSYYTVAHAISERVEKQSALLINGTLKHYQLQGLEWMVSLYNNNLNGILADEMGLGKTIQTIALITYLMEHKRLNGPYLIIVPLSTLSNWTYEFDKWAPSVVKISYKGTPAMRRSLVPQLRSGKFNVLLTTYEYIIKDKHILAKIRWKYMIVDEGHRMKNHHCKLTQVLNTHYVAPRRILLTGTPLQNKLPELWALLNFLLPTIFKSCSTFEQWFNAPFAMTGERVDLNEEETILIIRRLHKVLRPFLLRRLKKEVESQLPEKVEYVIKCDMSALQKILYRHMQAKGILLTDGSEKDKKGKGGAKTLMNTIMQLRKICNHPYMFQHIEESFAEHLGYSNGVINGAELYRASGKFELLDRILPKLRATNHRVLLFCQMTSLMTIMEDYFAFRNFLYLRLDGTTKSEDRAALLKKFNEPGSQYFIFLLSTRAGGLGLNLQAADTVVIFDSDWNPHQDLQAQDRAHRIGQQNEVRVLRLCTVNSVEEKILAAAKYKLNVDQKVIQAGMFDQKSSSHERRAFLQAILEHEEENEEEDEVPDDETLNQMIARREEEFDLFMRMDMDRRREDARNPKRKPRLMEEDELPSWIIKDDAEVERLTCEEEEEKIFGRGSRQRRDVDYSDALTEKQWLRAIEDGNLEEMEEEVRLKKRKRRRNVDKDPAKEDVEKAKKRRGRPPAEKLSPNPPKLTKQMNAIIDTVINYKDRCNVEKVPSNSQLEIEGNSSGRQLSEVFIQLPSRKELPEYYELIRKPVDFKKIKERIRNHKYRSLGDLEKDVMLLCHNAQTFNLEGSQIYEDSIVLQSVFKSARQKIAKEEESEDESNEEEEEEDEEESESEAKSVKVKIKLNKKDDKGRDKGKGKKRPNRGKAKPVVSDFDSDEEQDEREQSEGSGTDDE
Method in brief: (§1)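 Degradation measured as HiBiT luminescence (Nano-Glo lytic reagent) after 18 h compound exposure at 37° C. Cells were HeLa clones carrying heterozygous HiBiT tags on SMARCA2 or SMARCA4, 2500 per well; compounds at 3-fold serial dilution from 10 μM.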

SMARCA4 = target: T2, SMARCA4 (Homo sapiens, UniProt P51532); test: SMARCA4 HiBiT degradation assay in HeLa cells; type: cell-based; settings: 18 hours; for Dmax: HeLa
T2 construct: SMARCA4-HiBiT knock-in Hela monoclonal cell (CS3023226) were purchased from Promega; host or cells: HeLa (CRISPR HiBiT knock-in monoclonal line, heterozygous)
T2 sequence (P51532 whole entry): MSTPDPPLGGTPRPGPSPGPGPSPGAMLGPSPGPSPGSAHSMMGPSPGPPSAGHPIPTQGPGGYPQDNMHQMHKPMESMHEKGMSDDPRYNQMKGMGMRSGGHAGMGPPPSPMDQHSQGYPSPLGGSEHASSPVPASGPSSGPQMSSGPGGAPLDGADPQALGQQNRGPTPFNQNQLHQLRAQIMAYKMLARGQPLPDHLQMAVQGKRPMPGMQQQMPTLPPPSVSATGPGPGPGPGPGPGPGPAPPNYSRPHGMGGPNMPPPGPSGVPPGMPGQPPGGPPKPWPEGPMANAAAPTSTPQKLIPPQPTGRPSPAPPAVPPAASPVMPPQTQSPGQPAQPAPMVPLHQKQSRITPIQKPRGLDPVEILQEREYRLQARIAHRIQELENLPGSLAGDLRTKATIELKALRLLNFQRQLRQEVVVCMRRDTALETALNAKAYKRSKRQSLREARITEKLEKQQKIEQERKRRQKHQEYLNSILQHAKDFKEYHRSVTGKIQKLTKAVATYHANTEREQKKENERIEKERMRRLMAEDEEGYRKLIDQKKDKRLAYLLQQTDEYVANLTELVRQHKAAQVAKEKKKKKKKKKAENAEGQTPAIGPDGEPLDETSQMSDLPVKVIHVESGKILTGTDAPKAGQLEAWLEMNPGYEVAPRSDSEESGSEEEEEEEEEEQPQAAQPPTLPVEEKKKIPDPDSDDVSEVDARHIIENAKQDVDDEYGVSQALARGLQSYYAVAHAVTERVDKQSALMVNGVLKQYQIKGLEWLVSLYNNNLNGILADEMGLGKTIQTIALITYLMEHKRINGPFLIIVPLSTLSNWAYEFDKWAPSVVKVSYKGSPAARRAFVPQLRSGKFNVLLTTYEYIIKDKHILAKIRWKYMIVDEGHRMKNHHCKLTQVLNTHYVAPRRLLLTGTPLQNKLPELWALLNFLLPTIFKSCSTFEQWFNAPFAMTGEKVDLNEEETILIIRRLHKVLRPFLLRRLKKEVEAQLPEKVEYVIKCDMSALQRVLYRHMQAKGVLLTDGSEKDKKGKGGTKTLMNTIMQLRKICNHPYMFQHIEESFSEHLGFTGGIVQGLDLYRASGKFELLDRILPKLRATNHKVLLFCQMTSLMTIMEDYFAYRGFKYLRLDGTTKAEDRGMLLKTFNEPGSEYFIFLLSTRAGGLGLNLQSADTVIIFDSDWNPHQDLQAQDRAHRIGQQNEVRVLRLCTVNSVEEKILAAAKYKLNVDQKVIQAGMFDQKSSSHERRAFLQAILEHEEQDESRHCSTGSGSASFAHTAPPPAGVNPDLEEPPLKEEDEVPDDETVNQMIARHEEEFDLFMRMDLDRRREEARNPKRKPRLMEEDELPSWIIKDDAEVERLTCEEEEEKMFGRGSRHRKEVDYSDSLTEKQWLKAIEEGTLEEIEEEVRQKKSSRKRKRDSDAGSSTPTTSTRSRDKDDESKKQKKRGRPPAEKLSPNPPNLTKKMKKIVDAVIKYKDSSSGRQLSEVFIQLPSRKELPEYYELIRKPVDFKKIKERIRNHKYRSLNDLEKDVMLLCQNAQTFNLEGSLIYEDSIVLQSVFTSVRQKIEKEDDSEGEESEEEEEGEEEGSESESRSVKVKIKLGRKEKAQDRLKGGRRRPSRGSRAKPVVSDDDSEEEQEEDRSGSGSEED
Method in brief: as §1

Compound | DC50 (SMARCA2) [nM] | Dmax (SMARCA2) [%] | DC50 (SMARCA4) [nM] | Dmax (SMARCA4) [%]
CC1(C)CC(CN2CCN(c3ccc4c(c3)C(=O)N([C@H]3CCC(=O)NC3=O)C4)CC2)CCN1C(=O)N1CCN2c3cc(-c4cccc(F)c4O)nnc3NC[C@@]2(C(F)F)C1 (stereo partly drawn) [Example 73, (3S)-3-(6-(4-((1-((S)-6a-(difluoromethyl)-2-(3-fluoro-2-hydroxyphenyl)-6,6a,7,8,9,10-hexahydro-5H-pyrazino[1′,2′:4,5]pyrazino[2,3-c]pyridazine-8-carbonyl)-2,2-dimethylpiperidin-4-yl)methyl)piperazin-1-yl)-1-oxoisoindolin-2-yl)piperidine-2,6-dione] | < 100 | > 75 | 100 to 1000 | < 50
O=C1CCC(N2Cc3ccc(N4CCN(C[C@H]5CC[C@H](C(=O)N6CCN7c8cc(-c9cccc(F)c9O)nnc8NC[C@H]7C6)CC5)CC4)cc3C2=O)C(=O)N1 (stereo partly drawn) [Example 104, 3-(6-(4-(((1S,4r)-4-((S)-2-(3-fluoro-2-hydroxyphenyl)-6,6a,7,8,9,10-hexahydro-5H-pyrazino[1′,2′:4,5]pyrazino[2,3-c]pyridazine-8-carbonyl)cyclohexyl)methyl)piperazin-1-yl)-1-oxoisoindolin-2-yl)piperidine-2,6-dione] | < 100 | > 75 | 100 to 1000 | < 50
O=C1CC[C@H](N2Cc3ccc(N4CCC(CN5CCC(F)(C(=O)N6CCN7c8cc(-c9cc(F)cc(F)c9O)nnc8NC[C@]7(C(F)F)C6)CC5)CC4)cc3C2=O)C(=O)N1 [Example 105, (S)-3-(6-(4-((4-((R)-2-(3,5-difluoro-2-hydroxyphenyl)-6a-(difluoromethyl)-6,6a,7,8,9,10-hexahydro-5H-pyrazino[1′,2′:4,5]pyrazino[2,3-c]pyridazine-8-carbonyl)-4-fluoropiperidin-1-yl)methyl)piperidin-1-yl)-1-oxoisoindolin-2-yl)piperidine-2,6-dione] | < 100 | > 75 | < 100 | 50 to 75
O=C1CC[C@H](N2Cc3ccc(N4CCN(C[C@H]5CC[C@H](CN6CCN7c8cc(-c9cccc(F)c9O)nnc8NC[C@H]7C6)CC5)CC4)cc3C2=O)C(=O)N1 [Example 114, (S)-3-(6-(4-(((1S,4S)-4-(((S)-2-(3-fluoro-2-hydroxyphenyl)-5,6,6a,7,9,10-hexahydro-8H-pyrazino[1′,2′:4,5]pyrazino[2,3-c]pyridazin-8-yl)methyl)cyclohexyl)methyl)piperazin-1-yl)-1-oxoisoindolin-2-yl)piperidine-2,6-dione] | < 100 | > 75 | < 100 | 50 to 75
CC1(C)CN(CC2CCN(c3ccc4c(c3)C(=O)N(C3CCC(=O)NC3=O)C4)CC2)CCC1C(=O)N1CCN2c3cc(-c4cc(F)cc(F)c4O)nnc3NC[C@H]2C1 (stereo partly drawn) [Example 119, 3-(6-(4-((4-((S)-2-(3,5-difluoro-2-hydroxyphenyl)-6,6a,7,8,9,10-hexahydro-5H-pyrazino[1′,2′:4,5]pyrazino[2,3-c]pyridazine-8-carbonyl)-3,3-dimethylpiperidin-1-yl)methyl)piperidin-1-yl)-1-oxoisoindolin-2-yl)piperidine-2,6-dione] | < 100 | > 75 | 100 to 1000 | < 50
CC1(C)CC(CN2CCN(c3ccc4c(c3)C(=O)N(C3CCC(=O)NC3=O)C4)CC2)CCN1C(=O)N1CCN2c3cc(-c4cccc(F)c4O)nnc3NC[C@H]2C1 (stereo partly drawn) [Example 122, 3-(6-(4-((1-((S)-2-(3-fluoro-2-hydroxyphenyl)-6,6a,7,8,9,10-hexahydro-5H-pyrazino[1′,2′:4,5]pyrazino[2,3-c]pyridazine-8-carbonyl)-2,2-dimethylpiperidin-4-yl)methyl)piperazin-1-yl)-1-oxoisoindolin-2-yl)piperidine-2,6-dione] | < 100 | > 75 | < 100 | 50 to 75
